Data from ChEMBL document CHEMBL1142780, “Phenylpyrroles, a new chemolibrary virtual screening class of 5-HT7 receptor ligands” (Bioorg Med Chem Lett, 2005).

Experiments:
[1] = molecular target: 5-hydroxytryptamine receptor 7 (Rattus norvegicus) (UniProt P32305); experiment: Inhibition of the binding of [3H]LSD on rat 5-HT7R expressed in HEK293 cells at concentration of 10e-6 M; type: cell-based
[2] = molecular target: 5-hydroxytryptamine receptor 7 (Rattus norvegicus) (UniProt P32305); experiment: Inhibition of the binding of [3H]LSD on rat 5-HT7R expressed in HEK293 cells at concentration of 10e-8 M; type: cell-based
[3] = molecular target: T1, 5-hydroxytryptamine receptor 7 (Homo sapiens, UniProt P34969); experiment: Inhibition of the binding of [3H]LSD on human 5-HT7R expressed in sf9 cells at concentration of 10e-8 M
T1 sequence (P34969 whole entry): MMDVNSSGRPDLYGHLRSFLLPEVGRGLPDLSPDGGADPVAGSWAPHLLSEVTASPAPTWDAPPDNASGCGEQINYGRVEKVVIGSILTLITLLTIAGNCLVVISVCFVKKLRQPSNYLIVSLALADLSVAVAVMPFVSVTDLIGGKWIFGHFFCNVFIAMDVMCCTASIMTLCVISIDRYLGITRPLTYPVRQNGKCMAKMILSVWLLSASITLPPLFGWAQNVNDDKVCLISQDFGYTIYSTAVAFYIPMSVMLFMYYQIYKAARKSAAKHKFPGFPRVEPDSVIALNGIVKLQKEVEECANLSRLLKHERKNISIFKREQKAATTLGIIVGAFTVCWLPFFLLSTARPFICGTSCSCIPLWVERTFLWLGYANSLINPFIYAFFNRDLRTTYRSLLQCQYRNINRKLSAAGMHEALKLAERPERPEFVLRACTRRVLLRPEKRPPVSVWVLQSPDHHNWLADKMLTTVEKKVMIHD

[4] = molecular target: T1, 5-hydroxytryptamine receptor 7; experiment: Inhibition of the binding of [3H]LSD on human 5-HT7R expressed in sf9 cells at concentration of 10e-6 M
[5] = molecular target: 5-hydroxytryptamine receptor 7 (Rattus norvegicus, UniProt P32305); experiment: Binding affinity against rat 5-HT7R expressed in HEK293 cells; type: cell-based
5-hydroxytryptamine receptor 7 (Rattus norvegicus, UniProt P32305), sequence (P32305 whole entry): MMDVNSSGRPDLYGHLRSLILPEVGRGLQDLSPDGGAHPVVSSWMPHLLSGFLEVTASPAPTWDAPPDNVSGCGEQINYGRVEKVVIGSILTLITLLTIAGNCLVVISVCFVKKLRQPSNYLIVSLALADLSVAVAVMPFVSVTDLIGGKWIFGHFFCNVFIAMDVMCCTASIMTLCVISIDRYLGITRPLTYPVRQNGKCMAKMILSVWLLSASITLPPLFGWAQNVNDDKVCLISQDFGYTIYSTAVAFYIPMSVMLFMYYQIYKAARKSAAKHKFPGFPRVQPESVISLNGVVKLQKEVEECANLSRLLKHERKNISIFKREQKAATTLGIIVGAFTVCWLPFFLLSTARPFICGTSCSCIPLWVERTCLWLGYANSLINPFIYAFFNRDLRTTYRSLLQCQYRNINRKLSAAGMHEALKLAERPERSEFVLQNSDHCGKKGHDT

[6] = molecular target: 5-hydroxytryptamine receptor 7 (Rattus norvegicus) (UniProt P32305); experiment: Inhibition of the binding of [3H]LSD on rat 5-HT7R in HEK293 cells at concentration of 10e-8 M; type: cell-based
[7] = molecular target: 5-hydroxytryptamine receptor 7 (Rattus norvegicus) (UniProt P32305); experiment: Inhibition of the binding of [3H]LSD on rat 5-HT7R in HEK293 cells at concentration of 10e-6 M; type: cell-based
[8] = molecular target: T2, 5-hydroxytryptamine receptor 1A (Rattus norvegicus, UniProt P19327); experiment: Binding affinity against rat 5-HT1A receptor
T2 sequence (P19327 whole entry): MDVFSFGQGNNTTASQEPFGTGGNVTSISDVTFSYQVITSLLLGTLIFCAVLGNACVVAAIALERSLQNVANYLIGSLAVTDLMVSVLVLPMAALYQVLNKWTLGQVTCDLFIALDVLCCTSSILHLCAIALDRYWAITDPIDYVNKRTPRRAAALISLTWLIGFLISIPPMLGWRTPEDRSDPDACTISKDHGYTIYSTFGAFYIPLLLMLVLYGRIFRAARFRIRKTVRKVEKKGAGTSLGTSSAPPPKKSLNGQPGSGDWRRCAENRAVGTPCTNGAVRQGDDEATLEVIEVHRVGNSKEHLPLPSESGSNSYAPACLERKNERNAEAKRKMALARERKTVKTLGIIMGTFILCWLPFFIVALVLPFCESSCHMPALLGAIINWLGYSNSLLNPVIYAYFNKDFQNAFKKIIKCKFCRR

[9] = molecular target: T1, 5-hydroxytryptamine receptor 7
Description: PKb value against Human 5-HT7 receptor

[10] = molecular target: 5-hydroxytryptamine receptor 6 (Homo sapiens) (UniProt P50406); experiment: Inhibition of the binding of [3H]LSD (radioligand) on human 5-HT6 receptor at concentration of 10e-8 M
5-hydroxytryptamine receptor 6 (Homo sapiens), sequence (P50406 whole entry): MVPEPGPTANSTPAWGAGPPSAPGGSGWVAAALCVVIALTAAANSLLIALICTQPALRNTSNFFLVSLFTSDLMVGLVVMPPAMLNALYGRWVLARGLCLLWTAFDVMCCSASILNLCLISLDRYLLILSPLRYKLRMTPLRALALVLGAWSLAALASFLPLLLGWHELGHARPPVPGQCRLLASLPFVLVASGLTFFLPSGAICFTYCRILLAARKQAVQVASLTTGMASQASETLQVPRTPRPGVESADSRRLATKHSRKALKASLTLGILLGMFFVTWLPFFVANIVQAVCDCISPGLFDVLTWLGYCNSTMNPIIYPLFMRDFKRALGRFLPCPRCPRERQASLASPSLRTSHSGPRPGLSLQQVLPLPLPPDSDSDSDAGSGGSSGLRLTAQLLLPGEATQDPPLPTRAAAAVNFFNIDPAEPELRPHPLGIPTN

[11] = molecular target: T1, 5-hydroxytryptamine receptor 7; experiment: Binding affinity against Human 5-HT7R expressed in sf9 cells
[12] = molecular target: 5-hydroxytryptamine receptor 6 (Homo sapiens) (UniProt P50406); experiment: Inhibition of the binding of [3H]LSD (radioligand) on human 5-HT6 receptor at concentration of 10e-6 M

5-hydroxytryptamine receptor 7 (Rattus norvegicus), sequence (P32305 whole entry): as the sequence (P32305 whole entry) above

inhibition [1] [%]	inhibition [2] [%]	inhibition [3] [%]	inhibition [4] [%]	inhibition [6] [%]	inhibition [7] [%]	SMILES	also measured
80	16					COc1ccccc1N1CCN(Cc2cccn2-c2ccccc2OC)CC1	
		0	14			CCOc1ccc(OCC)c(-n2cccc2CCN)c1	
38	7					COc1ccccc1N1CCN(Cc2cccn2-c2ccccc2C(F)(F)F)CC1	
				21	91	COc1ccccc1N1CCN(Cc2ccn(-c3ccccc3C(F)(F)F)c2)CC1	Ki [5]: 105 nM
				6	86	COc1ccccc1N1CCN(Cc2ccn(-c3cccc4ccccc34)c2)CC1	
		0	31			NCCc1cccn1-c1ccccc1	
		14	71			c1ccc(N2CCN(Cc3cccn3-c3ccccc3)CC2)cc1	
		0	72			Cc1cccc(-n2cccc2CCN)c1C	
24	0					COc1ccccc1N1CCN(Cc2cccn2-c2ccccc2C#N)CC1	
				0	91	COc1ccccc1N1CCN(Cc2ccn(-c3cccc(C)c3C)c2)CC1	
				9	42	Cc1ccccc1-n1ccc(CN2CCN(c3noc4ccccc34)CC2)c1	
		0	66			COc1ccccc1N1CCN(Cc2cccn2-c2ccc(Cl)cc2Cl)CC1	
				14	96	COc1ccccc1N1CCN(Cc2ccn(-c3ccccc3C#N)c2)CC1	Ki [8]: 33.7 nM; PKb [9]: 7.43; Ki [5]: 19 nM; inhibition [10]: 10%; Ki [11]: 5.4 nM; inhibition [12]: 12%
63	0					COc1ccccc1N1CCN(Cc2cccn2-c2ccccc2C)CC1	
60	17					COc1ccccc1N1CCN(Cc2cccn2-c2cccc3ccccc23)CC1	
		0	91			COc1ccccc1N1CCN(Cc2cccn2-c2ccccc2)CC1	
		0	58			NCCc1cccn1-c1ccccc1Cl	
		3	36			COc1ccc(-n2cccc2CCN)cc1	
43	1					N#Cc1ccccc1-n1cccc1CN1CCN(c2noc3ccccc23)CC1	
						COC(=O)c1cccc(C)c1-n1ccc(CN2CCN(c3ccccc3OC)CC2)c1	Ki [8]: 18.5 nM; PKb [9]: 7.66; inhibition [10]: 9%; Ki [11]: 18 nM; inhibition [12]: 20%
68	2					COc1ccccc1N1CCN(Cc2cccn2-c2cccc(C)c2C)CC1	
				0	32	COc1ccccc1N1CCN(Cc2ccn(-c3c(C)cc(C)cc3C)c2)CC1	
12	0					COc1ccccc1-n1cccc1CN1CCN(C)CC1	
				22	95	COc1ccccc1N1CCN(Cc2ccn(-c3ccccc3C)c2)CC1	Ki [8]: 9.9 nM; Ki [5]: 21 nM; inhibition [10]: 7%; Ki [11]: 4.7 nM; inhibition [12]: 9%
47	0					Cc1ccccc1-n1cccc1CN1CCN(c2noc3ccccc23)CC1	
		6	31			COc1ccc(OC)c(-n2cccc2CCN)c1	
				0	6	COc1ccccc1N1CCN(Cc2ccn(-c3ccccc3OC)c2)CC1	
33	0					Cc1cccc(-n2cccc2CN2CCN(C)CC2)c1C	
26	0					COc1ccccc1N1CCN(Cc2cccn2-c2ccccc2-c2ccccc2)CC1	
				7	34	N#Cc1ccccc1-n1ccc(CN2CCN(c3noc4ccccc34)CC2)c1	
